The data set concerns GENE-TOX genotoxicity assays, various organisms and cells. In words: GENE-TOX mutagenicity studies. Conditions: for call: Assay Type: In vivo carcinogenicity studies.
[1] abbreviates: Species/Cell Type: Human lymphocytes, Assay Type: Sister-chromatid exchange (SCE) in vitro, Assay Code: SCL+D, Dose Response: With dose response, Evaluation Type: Evaluation B (Post-1980).
Where [2] appears, read: Species/Cell Type: Human, Assay Type: Sister-chromatid exchange (SCE) in vitro, Assay Code: SC1+D, Dose Response: With dose response, Evaluation Type: Evaluation B (Post-1980).
Where [3] appears, read: Species/Cell Type: Salmonella typhimurium (one or more of the five standard strains: TA98, TA100, TA1535, TA1537, and TA1538), Assay Type: Histidine reverse gene mutation, Ames assay, Assay Code: SAL+, Evaluation Type: Evaluation A (Pre-1980).
Setting [4] is: Species/Cell Type: Drosophila melanogaster, Assay Type: Sex-linked recessive lethal gene mutation, Assay Code: SRL+, Evaluation Type: Evaluation A (Pre-1980).
Setting [5] is: Species/Cell Type: Syrian hamster embryo (SHE) cells, Assay Type: Cell transformation, clonal assay, Assay Code: CTC+, Evaluation Type: Evaluation A (Pre-1980).
Where [6] appears, read: Species/Cell Type: Mammalian polychromatic erythrocytes, Assay Type: Micronucleus test, chromosome aberrations, Assay Code: MNTT, Evaluation Type: Evaluation A (Pre-1980).
The mark [7] stands for this setting: Species/Cell Type: Mouse, Sex: Male, Assay Type: Sperm morphology, Assay Code: SPI-, Evaluation Type: Evaluation A (Pre-1980).
[8] abbreviates: Species/Cell Type: Rodents, Sex: Male, Assay Type: Dominant lethal test, Assay Code: DLT-, Evaluation Type: Evaluation A (Pre-1980).
Setting [9] is: Species/Cell Type: Salmonella typhimurium (one or more of the five standard strains: TA98, TA100, TA1535, TA1537, and TA1538), Assay Type: Histidine reverse gene mutation, Ames assay, Assay Code: SAL+*, Activation: With metabolic activation, Evaluation Type: Evaluation A (Pre-1980).
The mark [10] stands for this setting: Species/Cell Type: Drosophila melanogaster, Assay Type: Sex-linked recessive lethal gene mutation, Assay Code: SRLT, Evaluation Type: Evaluation A (Pre-1980).
Setting [11] is: Species/Cell Type: Salmonella typhimurium (one or more of the five standard strains: TA98, TA100, TA1535, TA1537, and TA1538), Assay Type: Histidine reverse gene mutation, Ames assay, Assay Code: SALT, Evaluation Type: Evaluation A (Pre-1980).
[12] abbreviates: Species/Cell Type: Nonhuman, Assay Code: CCG+L, Evaluation Type: Evaluation A (Pre-1980).

Calls of active or inactive are those of the source. No rule for the calls is given here.

`OCC1CO1` (stereo not given): the mutagenic call (Species/Cell Type: Escherichia coli polA (W3119 vs P3478), Assay Type: Rec-assay, DNA effects (bacterial DNA repair), Assay Code: RE1+, Evaluation Type: Evaluation A (Pre-1980)) was “active; positive”; the mutagenic call (Species/Cell Type: Human diploid fibroblasts, Assay Type: Unscheduled DNA synthesis (UDS) in vitro, DNA effects, Assay Code: UDH-, Evaluation Type: Evaluation A (Pre-1980)) was “inactive; negative”; the mutagenic call under setting [1] was “active; positive”; the mutagenic call under setting [2] is “active; positive”; the mutagenic call (Species/Cell Type: Neurospora crassa, Assay Type: Reverse gene mutation, Assay Code: NER+, Evaluation Type: Evaluation A (Pre-1980)) was “active; positive”; the mutagenic call (Species/Cell Type: Saccharomyces cerevisiae, Assay Type: Mitotic recombination or gene conversion, Assay Code: YEH+, Evaluation Type: Evaluation A (Pre-1980)) was “active; positive”. Besides, the mutagenic call by setting is: under setting [3], “active; positive”; (Species/Cell Type: Schizosaccharomyces pombe, Assay Type: Reverse gene mutation, Assay Code: YEZ+, Evaluation Type: Evaluation A (Pre-1980)) “active; positive”; (Species/Cell Type: Syrian hamster embryo (SHE) cells, Assay Type: Cell transformation, clonal assay, Assay Code: CTCT, Evaluation Type: Evaluation A (Pre-1980)) “no conclusion”.

As for `O=Cc1ccc([N+](=O)[O-])o1`, the mutagenic call runs as follows: (Species/Cell Type: Escherichia coli WP2, Assay Type: Tryptophan reverse gene mutation, Assay Code: WP2-, Evaluation Type: Evaluation A (Pre-1980)) “inactive; negative”; (Species/Cell Type: Saccharomyces cerevisiae, Assay Type: Mitotic recombination or gene conversion, Assay Code: YEC-, Evaluation Type: Evaluation A (Pre-1980)) “inactive; negative”.

In the case of `C=C/C=C/Cl`, the mutagenic call under setting [4] is “active; positive”.

On to `CC1CS(=O)(=O)CCN1/N=C/c1ccc([N+](=O)[O-])o1` (stereo not given), for which the mutagenic call (Species/Cell Type: Mammalian polychromatic erythrocytes, Assay Type: Micronucleus test, chromosome aberrations, Assay Code: MNT+, Evaluation Type: Evaluation B (Post-1980)) is “active; positive”.

With `NC(=S)Nc1cccc2ccccc12`, the call (Species/Cell Type: Nonhuman, Assay Code: CCGT, Evaluation Type: Evaluation A (Pre-1980)) is on record as “no conclusion”. In addition, the mutagenic call under setting [5] is “active; positive”.

On to `Clc1cccc(-c2ccc(Cl)c(Cl)c2Cl)c1Cl`, for which the mutagenic call by setting is: under setting [6], “no conclusion”; under setting [7], “inactive; negative”; under setting [8], “inactive; negative”; (Species/Cell Type: Syrian hamster embryo (SHE) cells, Assay Type: Cell transformation, clonal assay, Assay Code: CTC-, Evaluation Type: Evaluation A (Pre-1980)) “inactive; negative”.

As to `Cn1ccc(CO)c1`, the mutagenic call by setting is: under setting [1], “active; positive”; under setting [2], “active; positive”.

With `O=NN1CCCC(Cl)C1` (stereo not given), the mutagenic call reads like this: under setting [4], “active; positive”; under setting [9], “active; positive”.

Consider `CCCOc1ccc(CC(=O)OC)cc1CSC(=N)N`, for which the mutagenic call (Species/Cell Type: Saccharomyces cerevisiae, Assay Type: Reverse gene mutation, Assay Code: YERT, Evaluation Type: Evaluation A (Pre-1980)) is “no conclusion”.

As for `CC(=O)N(OS(=O)(=O)O)c1ccc2c(c1)Cc1ccccc1-2`, the mutagenic call under setting [10] is “no conclusion”.

For `c1cc2cc3c4c(ccc5cc6c(c1CCC6)c2c54)CCC3`, under setting [9], the mutagenic call was “active; positive”.

On to `N#[N+]c1nc[nH]c1C(N)=O`, for which, under setting [3], the mutagenic call was “active; positive”.

Take `CC(C)NCC(O)COc1ccc(CC(N)=O)cc1` (stereo not given): the mutagenic call (Species/Cell Type: Mammalian polychromatic erythrocytes, Assay Type: Micronucleus test, chromosome aberrations, Assay Code: MNTT, Evaluation Type: Evaluation B (Post-1980)) is “no conclusion”.

Consider `CN(CCO)c1nc(Nc2ccccc2)nc(Nc2ccc(/C=C/c3ccc(Nc4nc(Nc5ccccc5)nc(N(C)CCO)n4)cc3S(=O)(=O)O)c(S(=O)(=O)O)c2)n1`, for which the mutagenic call was “inactive; negative” under setting [8] and “no conclusion” under setting [11].

`Clc1ccc(N=Nc2ccc(Cl)c(Cl)c2)cc1Cl`: the mutagenic call runs as follows: (Species/Cell Type: Aspergillus nidulans, Assay Type: Forward gene mutation, Assay Code: ASF+, Evaluation Type: Evaluation A (Pre-1980)) “active; positive”; (Species/Cell Type: Rat primary hepatocytes, Assay Type: Unscheduled DNA synthesis (UDS) in vitro, DNA effects, Assay Code: UDP+D, Dose Response: With dose response, Evaluation Type: Evaluation A (Pre-1980)) “active; positive”.

With `O=c1ccn([C@H]2C[C@H](O)[C@@H](COP(=O)(O)O)O2)c(=O)[nH]1`, the mutagenic call under setting [10] is “no conclusion”.

Consider `Cn1cccc1CO`, for which the mutagenic call under setting [1] was “active; positive” and the mutagenic call under setting [2] is “active; positive”.

For the compound `C[C@H](CC[C@H](C)OS(C)(=O)=O)OS(C)(=O)=O`, the mutagenic call (Species/Cell Type: Rodents, Sex: Male, Assay Type: Dominant lethal test, Assay Code: DLT+, Evaluation Type: Evaluation A (Pre-1980)) was “active; positive”.

Consider `O=C1C2(Cl)C3(Cl)C4(Cl)C(Cl)(Cl)C5(Cl)C3(Cl)C1(Cl)C5(Cl)C24Cl` (stereo not given), for which the mutagenic call (Species/Cell Type: Human, Sex: Male, Assay Type: Sperm morphology, Assay Code: SPHT, Evaluation Type: Evaluation A (Pre-1980)) was “no conclusion”. Also, the call (Species/Cell Type: Nonhuman, Assay Code: CCG+, Evaluation Type: Evaluation A (Pre-1980)) is “active; positive”.

With `CCCCCCCCCCCCCC(=O)N(C)N=O`, the mutagenic call (Species/Cell Type: Saccharomyces cerevisiae, Assay Type: Reverse gene mutation, Assay Code: YER+, Evaluation Type: Evaluation A (Pre-1980)) was “active; positive”.

As to `c1ccc2c3c(ccc2c1)Cc1c(ccc2ccccc12)C3`, the mutagenic call under setting [9] was “active; positive”.

`CC(=O)Oc1ccccc1C(=O)O`: the mutagenic call was “no conclusion” under setting [6] and “inactive; negative” under setting [7].

Consider `COc1cc2c(c3oc(=O)c4c(c13)CCC4=O)[C@@H]1CCO[C@@H]1O2`, for which the mutagenic call (Species/Cell Type: Bacillus subtilis (H17 vs M45), Assay Type: Rec-assay, spot test, DNA effects (bacterial DNA repair), Assay Code: REWT, Evaluation Type: Evaluation A (Pre-1980)) is listed as “no conclusion”; the mutagenic call (Species/Cell Type: Chinese hamster lung (V79) cells, Assay Type: Forward gene mutation at the HPRT or ouabain locus, Assay Code: V79+, Evaluation Type: Evaluation A (Pre-1980)) was “active; positive”; the mutagenic call (Species/Cell Type: Escherichia coli polA (W3110 vs P3478), Assay Type: Rec-assay, DNA effects (bacterial DNA repair), Assay Code: RE2-, Evaluation Type: Evaluation A (Pre-1980)) is “inactive; negative”; the mutagenic call (Species/Cell Type: Escherichia coli polA (W3119 vs P3478), Assay Type: Rec-assay, DNA effects (bacterial DNA repair), Assay Code: RE1T, Evaluation Type: Evaluation A (Pre-1980)) was “no conclusion”; the mutagenic call (Species/Cell Type: Human diploid fibroblasts, Assay Type: Unscheduled DNA synthesis (UDS) in vitro, DNA effects, Assay Code: UDH-*, Activation: With metabolic activation, Evaluation Type: Evaluation A (Pre-1980)) is “inactive; negative”; the mutagenic call (Species/Cell Type: Nonhuman, Assay Type: Sister-chromatid exchange (SCE) in vitro, Assay Code: SC2+D*, Activation: With metabolic activation, Dose Response: With dose response, Evaluation Type: Evaluation B (Post-1980)) was “active; positive”. The mutagenic call reads like this: (Species/Cell Type: Rat primary hepatocytes, Assay Type: Unscheduled DNA synthesis (UDS) in vitro, DNA effects, Assay Code: UDP-, Evaluation Type: Evaluation A (Pre-1980)) “inactive; negative”; (Species/Cell Type: Saccharomyces cerevisiae, Assay Type: Mitotic recombination or gene conversion, Assay Code: YEH-, Evaluation Type: Evaluation A (Pre-1980)) “inactive; negative”; under setting [11], “no conclusion”; (Species/Cell Type: Salmonella typhimurium, Assay Type: Forward and reverse gene mutation, host-mediated assay, Assay Code: HMA-, Evaluation Type: Evaluation A (Pre-1980)) “inactive; negative”; under setting [5], “active; positive”. Further, under setting [12], the call was “active; positive”.

In the case of `[Cl-].[Cl-].[NH2-].[NH2-].[NH2-].[Pt+2]`, where the note is “Species/Cell Type: Chinese hamster ovary (CHO) cells, Assay Type: Forward gene mutation at the HPRT locus, Assay Code: CHO+, Evaluation Type: Evaluation B (Post-1980)”, the mutagenic call was “active; positive”.

As for `O[C@@H]1C=Cc2c(ccc3cc4c(ccc5ccccc54)cc23)[C@H]1O`, the call under setting [12] is “active; positive”. In addition, the mutagenic call runs as follows: (Species/Cell Type: Nonhuman, Assay Type: Sister-chromatid exchange (SCE) in vitro, Assay Code: SC2+D, Dose Response: With dose response, Evaluation Type: Evaluation B (Post-1980)) “active; positive”; under setting [9], “active; positive”.

As for `CCCCC/C=C/C=C/C(=O)NCC(C)C`, the mutagenic call (Species/Cell Type: Allium cepa, Assay Type: Chromosome aberrations, Assay Code: ALC+, Evaluation Type: Evaluation A (Pre-1980)) was “active; positive”.

In the case of `F/C(=C(/F)C(F)(F)F)C(F)(F)F`, the mutagenic call under setting [10] is listed as “no conclusion”.

The values are drawn from PubChem BioAssay AID1259408 (Genetic Toxicology Data Bank (GENE-TOX), 2018).
